From patent US20110009374A1, “METHOD OF WOUND HEALING AND SCAR MODULATION” (priority 2009, published 2011)
Values joined by “and” are separate entries in the source; they are usually repeats but may differ in a detail not shown here. Identical values can stand only once.

How the values were obtained:
Format in all cases: in vivo
[1] = test system: linear subcutaneous-deep incision wounds in hairless mice (Skh:HR-1); test: Example 2 scar evaluation by Vancouver Scale at day 21 and gross evaluation; set-up: key: Vancouver Scale subscores (18-point total), mean of two observers
Experimental: (§1) Twelve hairless mice (Skh:HR-1) with an average weight of […] were treated topically with a local anesthetic (LMX-4, Ferndale Laboratories, Inc.) for 30 minutes prior to wounding for dermal anesthesia. Antiseptics were not used because of the possibility of their local effect on the wound healing process.
(§2) The mice were subdivided into two groups, A and B. Each mouse received three linear, 10 mm long, subcutaneous-deep incision wounds parallel to the spinal column. The first incision was near the spinal column on the left side (C), one at a position 10 mm away from the first on the same side (L), and one on the right side about 10 mm from the center line or spinal column (R). All incision wounds were made with a 0.3 mm blade surgical blade. Because of the loose nature of the hairless mouse epidermis the wounds spread to as wide as 3 mm. Each mouse was housed separately.
(§3) 1) 0.25% Formulations: water (79.75%), ethanol (18%), methylprednisolone acetate or prednisolone acetate (0.25%), and ammonium acryloyldimethyltaurate/VP copolymer (2%).
(§4) 2) 1% Formulations: water (79%), ethanol (18%), methylpredinisolone acetate or prednisolone acetate (1%), and ammonium acryloyldimethyltaurate/VP copolymer (2%).
(§5) In Group A, wounds C and L were treated with the 0.25% and 1% methylprednisolone acetate formulations, respectively, and wound R was the control or untreated wound. In Group B, wounds C and L were treated with the 0.25% and 1% prednisolone acetate formulations, respectively and wound R was the control. The study drug (methylprednisolone or prednisolone) was applied to the treatment wounds twice daily (8 hours apart) beginning 1 h after the incision on day 1 and continuing through day 21. The wounds were far enough apart to avoid the spread of the treatment gel from the treated wound to the control wound. No additional physical barrier, such as a gauze bandage, was used.
Each mouse was kept in its cage during days 14-21. On day 21, each scar was assessed according to the Vancouver Scale (18 points) under magnification by two observers independently and the scores were averaged and recorded. Progressive re-epithelializaton of the wound surface from the wound edges continued until the wound surface was completely closed at a time between days 14 and 21.

[2] = test system: linear subcutaneous-deep wounds in hairless mice (Skh:HR-1); test: Example 1 scar evaluation by Vancouver Scale at day 21; conditions: 1% formulation
Experimental: (§6) Twelve hairless mice (Skh:HR-1) with an average weight of […] were treated topically with a local anesthetic (LMX-4, Ferndale Laboratories, Inc.) for dermal anesthesia for 30 minutes prior to wounding. Antiseptics were not used because of the possibility of their local effect on the wound healing process.
(§7) Two linear subcutaneous-deep wounds were made bilaterally with a 0.3 mm blade surgical knife on the dorsal side of each subject approximately 10 mm on each side of the spinal column. Because of the loose nature of the hairless mouse epidermis the wounds spread to as wide as 3 mm. Each mouse was housed separately.
(§8) The test formulation comprised the following ingredients (by weight percent): water (79%), ethanol (18%), prednisolone acetate (1%), and ammonium acryloyldimethyltaurate/VP copolymer (2%).
(§9) In each test subject, the right wound was assigned to a control (i.e., no treatment) and the left would was treated with a the 1% prednisolone acetate test formulation, applied twice daily (8 hours apart) beginning 1 h after the incision on day 1 and continuing through day 21. The wounds were about 20 mm apart to prevent the treatment gel from migrating from the treatment wound to the control wound.
Each mouse was kept in its cage during days 14-21. On day 21, each scar was assessed according to the Vancouver Scale (18 points) under magnification by two observers independently and the scores were averaged and recorded. Progressive re-epithelialization of the wound surface from the wound edges continued until the wound surface was completely closed at a time between days 14 and 21.

[3] = test system: linear subcutaneous-deep wounds in hairless mice (Skh:HR-1); test: Example 1 wound healing in hairless mice: healing evaluation by wound width; conditions: for Scar Width at widest margin: individual subject, 1% formulation topically twice daily; for Scar Width at widest margin / Scar Width at widest margin, Mean: L wound; for Scar Width at widest margin, Mean: mean of 12 subjects, 1% formulation twice daily
Experimental: as §6, §7, §8, §9
Healing evaluation was made by measuring wound closure, which was assessed by the width of the wound. Evaluation was made on days 1, 3, 5, 10, and 14. The width of each scar was measured with digital calipers at the widest point while subject was lying motionless on its ventral side. Digital photographs were taken to record healing process.

[4] = test system: linear subcutaneous-deep incision wounds in hairless mice (Skh:HR-1); test: Example 2 wound healing in hairless mice: healing evaluation by wound width
Experimental: as §1, §2, §3, §4, §5
Healing evaluation was made by measuring wound closure, which was assessed by the width of the wound. The width of each scar was measured with digital calipers at the widest point while subject was lying motionless, on its ventral side. Digital photographs were taken to record the healing process. The mean width of wound was recorded on days 1, 3, 5, 7, 9, 11, 13, 15, 17, 19 and 21.

[5] = Day 21, individual subject, L wound
[6] = Day 21, mean of 12 subjects, L wound

CC(=O)OCC(=O)[C@@]1(O)CC[C@H]2[C@@H]3CCC4=CC(=O)C=C[C@]4(C)[C@H]3[C@@H](O)C[C@@]21C [prednisolone acetate]
Mean Vancouver Scale Scar Scoring, Height ([1]; wound C, 0.25% formulation): 0 | Mean Vancouver Scale Scar Scoring, Pigmentation ([1]; wound C, 0.25% formulation): 1 | Mean Vancouver Scale Scar Scoring, Pliability ([1]; wound C, 0.25% formulation): 2.5 | Mean Vancouver Scale Scar Scoring, Vascularity ([1]; wound C, 0.25% formulation): 0 | Mean Vancouver Scale Scar Scoring, Height ([1]; wound L, 1% formulation): 0 | Mean Vancouver Scale Scar Scoring, Pigmentation ([1]; wound L, 1% formulation): 1 | Mean Vancouver Scale Scar Scoring, Pliability ([1]; wound L, 1% formulation): 1.0 | Mean Vancouver Scale Scar Scoring, Vascularity ([1]; wound L, 1% formulation): 0 | Averaged Vancouver Scale Scar Scoring, Height [2, 5]: 0 | Averaged Vancouver Scale Scar Scoring, Pigmentation [2, 5]: 1.5 and 1 (11×) | Averaged Vancouver Scale Scar Scoring, Pliability [2, 5]: 1 (10×) and 1.5 (2×) | Averaged Vancouver Scale Scar Scoring, Vascularity [2, 5]: 1 (2×) and 0 (10×) | Averaged Vancouver Scale Scar Scoring, Height, Mean [2, 6]: 0 | Averaged Vancouver Scale Scar Scoring, Pigmentation, Mean [2, 6]: 1.1 | Averaged Vancouver Scale Scar Scoring, Pliability, Mean [2, 6]: 1.1 | Averaged Vancouver Scale Scar Scoring, Vascularity, Mean [2, 6]: 0.16 | global assessment of scars by Vancouver Scale, treated vs control ([2]; day 21): significant difference in pliability, pigmentation and vascularity | pigmentation vs control ([2]; day 21): marginally better | vascularity in treated areas ([2]; day 21): returned to virtually normal | redness and marginal line of treated wounds vs control ([3]; 1% formulation): less redness and a finer marginal line | scars healed with some degree of contracture ([3]; 1% formulation, number of scars out of 12): 8 out of the 12 | signs of infection ([3]; 1% formulation, treated and control wounds): Neither the control nor the treated wounds showed signs of infection | Scar Width at widest margin ([3]; Day 1): 3.0 mm (2×) and 2.6 mm and 2.9 mm (4×) and 2.7 mm (3×) and 2.8 mm (2×) | Scar Width at widest margin, Mean ([3]; Day 1): 2.8 mm | Scar Width at widest margin ([3]; Day 3): 1.9 mm (3×) and 1.8 mm (4×) and 1.4 mm and 1.5 mm and 1.7 mm (3×) | Scar Width at widest margin, Mean ([3]; Day 3): 1.8 mm | Scar Width at widest margin ([3]; Day 5): 1.7 mm (3×) and 1.6 mm (3×) and 1.1 mm and 1.3 mm and 1.4 mm (3×) and 1.5 mm | Scar Width at widest margin, Mean ([3]; Day 5): 1.5 mm | Scar Width at widest margin ([3]; Day 10): 0.6 mm (4×) and 0.2 mm and 0.4 mm (2×) and 0.5 mm (3×) and 0.3 mm and 0.7 mm | Scar Width at widest margin, Mean ([3]; Day 10): 0.5 mm | Scar Width at widest margin ([3]; Day 14): 0.2 mm (2×) and 0.0 mm (10×) | Scar Width at widest margin, Mean ([3]; Day 14): 0 mm and 0.0 mm | mean difference in wound width, treated vs control ([3]; day 3, 1% formulation): 0.4 mm | mean difference in wound width, treated vs control ([3]; day 5, 1% formulation): 0.4 mm | mean difference in wound width, treated vs control ([3]; day 7, 1% formulation): 0.5 mm | mean difference in wound width, treated vs control ([3]; day 10, 1% formulation): 0.5 mm | mean difference in wound width, treated vs control ([3]; day 14, 1% formulation): 0.7 mm | retarding of healing phases ([3]; evaluation and healing period, 1% formulation): No apparent retarding of any phase of healing | contracture of healed epidermal layer vs control ([3]; evident by day 5, 1% formulation): less contracture | gross appearance of treated wounds (crusting, infiltrates, exudates) ([3]; first 14 days, 1% formulation): clear of crusting, infiltrates, and exudates | healing vs control group by wound width ([3]; over a 14-day period, 1% formulation): faster than the control group | Mean Wound Width at Widest Margin ([4]; Day 1, wound C, 0.25% formulation twice daily): 3.1 ± 0.3 mm | Mean Wound Width at Widest Margin ([4]; Day 1, wound L, 1% formulation twice daily): 3.0 ± 0.2 mm | Mean Wound Width at Widest Margin ([4]; Day 3, wound C, 0.25% formulation twice daily): 2.5 ± 0.2 mm | Mean Wound Width at Widest Margin ([4]; Day 3, wound L, 1% formulation twice daily): 2.4 ± 0.3 mm | Mean Wound Width at Widest Margin ([4]; Day 5, wound C, 0.25% formulation twice daily): 1.7 ± 0.2 mm | Mean Wound Width at Widest Margin ([4]; Day 5, wound L, 1% formulation twice daily): 1.8 ± 0.4 mm | Mean Wound Width at Widest Margin ([4]; Day 7, wound C, 0.25% formulation twice daily): 1.4 ± 0.2 mm | Mean Wound Width at Widest Margin ([4]; Day 7, wound L, 1% formulation twice daily): 1.5 ± 0.2 mm | Mean Wound Width at Widest Margin ([4]; Day 9, wound C, 0.25% formulation twice daily): 1.1 ± 0.2 mm | Mean Wound Width at Widest Margin ([4]; Day 9, wound L, 1% formulation twice daily): 1.0 ± 0.2 mm | Mean Wound Width at Widest Margin ([4]; Day 11, wound C, 0.25% formulation twice daily): 0.6 ± 0.2 mm | Mean Wound Width at Widest Margin ([4]; Day 11, wound L, 1% formulation twice daily): 0.6 ± 0.2 mm | Mean Wound Width at Widest Margin ([4]; Day 13, wound C, 0.25% formulation twice daily): 0.1 ± 0.2 mm | Mean Wound Width at Widest Margin ([4]; Day 13, wound L, 1% formulation twice daily): 0.2 ± 0.3 mm | Mean Wound Width at Widest Margin ([4]; Day 15, wound C, 0.25% formulation twice daily): 0 mm | Mean Wound Width at Widest Margin ([4]; Day 15, wound L, 1% formulation twice daily): 0 mm | Mean Wound Width at Widest Margin ([4]; Day 17, wound C, 0.25% formulation twice daily): 0 mm | Mean Wound Width at Widest Margin ([4]; Day 17, wound L, 1% formulation twice daily): 0 mm | Mean Wound Width at Widest Margin ([4]; Day 19, wound C, 0.25% formulation twice daily): 0 mm | Mean Wound Width at Widest Margin ([4]; Day 19, wound L, 1% formulation twice daily): 0 mm | Mean Wound Width at Widest Margin ([4]; Day 21, wound C, 0.25% formulation twice daily): 0 mm | Mean Wound Width at Widest Margin ([4]; Day 21, wound L, 1% formulation twice daily): 0 mm
